Source: patent publication US20230183237A1, “COMPETITIVE AND NONCOMPETITIVE INHIBITORS OF THE MUSCARINIC ACETYLCHOLINE RECEPTOR M5” (Vanderbilt University, priority 2020, published 2023)
Read-outs that look alike come from different tables or passages of the source.

Molecular target: T1, hM5 (Homo sapiens, UniProt P08912)
T1 construct: expressed in transfected cells
T1 sequence (P08912 1-532): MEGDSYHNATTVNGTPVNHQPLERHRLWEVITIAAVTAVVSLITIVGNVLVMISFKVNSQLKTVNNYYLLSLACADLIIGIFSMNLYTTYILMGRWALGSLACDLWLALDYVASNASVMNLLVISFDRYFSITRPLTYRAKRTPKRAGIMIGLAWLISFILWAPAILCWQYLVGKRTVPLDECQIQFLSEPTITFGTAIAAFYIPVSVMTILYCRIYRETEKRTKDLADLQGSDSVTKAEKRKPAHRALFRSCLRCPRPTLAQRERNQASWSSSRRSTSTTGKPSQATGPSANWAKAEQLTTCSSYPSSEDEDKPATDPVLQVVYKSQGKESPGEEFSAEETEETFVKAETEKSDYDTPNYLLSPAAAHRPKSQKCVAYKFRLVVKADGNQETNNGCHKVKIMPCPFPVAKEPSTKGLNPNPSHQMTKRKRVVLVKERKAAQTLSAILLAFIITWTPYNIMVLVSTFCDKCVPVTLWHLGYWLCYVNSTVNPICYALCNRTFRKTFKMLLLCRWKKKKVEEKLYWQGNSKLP
Experiment: Calcium mobilization concentration-response (IC50 vs EC80 acetylcholine), CHO hM5
Type: cell-based
Conditions: CELL LINE hM5, read-out: IC50
How it was run: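 IC50 values derive from percent maximal acetylcholine response after an EC80 ACh addition, measured as kinetic calcium fluorescence (static ratio, max−min). Test compounds were added 140 s before agonist. Cells: stable hM5-CHO in HEPES-buffered HBSS with 2.5 mM probenecid, pH 7.4; ≥3 independent triplicate determinations.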

[1] = calcium mobilization, EC80 acetylcholine addition

Row | Compound | IC50 (vs EC80 acetylcholine) | IC50 [1]
1 | O=S(=O)(c1ccc(Cl)nc1)N1CCC(c2cc3cc[nH]c3cn2)CC1 [Compound 94, 5-(1-((6-chloropyridin-3-yl)sulfonyl)piperidin-4-yl)-1H-pyrrolo[2,3-c]pyridine] |  | > 10000 nM
2 | Cc1nc2cc(C)c(C3CCN(S(=O)(=O)c4cnn(C)c4C)CC3)cn2n1 [Compound 200, 6-(1-((1,5-dimethyl-1H-pyrazol-4-yl)sulfonyl)piperidin-4-yl)-2,7-dimethyl-[1,2,4]triazolo[1,5-a]pyridine] |  | 899 nM
3 | Cc1nc(C(F)(F)F)c(S(=O)(=O)N2CCC(c3cn4ncnc4cc3C)CC2)s1 [Compound 129, 2-methyl-5-((4-(7-methyl-[1,2,4]triazolo[1,5-a]pyridin-6-yl)piperidin-1-yl)sulfonyl)-4-(trifluoromethyl)thiazole] |  | 3800 nM
4 | Cc1cc2nccn2nc1C1CCN(S(=O)(=O)c2cnn(C)c2C)CC1 [Compound 251, 6-(1-((1,5-dimethyl-1H-pyrazol-4-yl)sulfonyl)piperidin-4-yl)-7-methylimidazo[1,2-b]pyridazine] |  | 34 nM
5 | O=S(=O)(c1ccc2c(c1)CCO2)N1CCC(c2cn3ccccc3n2)CC1 [Compound 10, 2-(1-((2,3-dihydrobenzofuran-5-yl)sulfonyl)piperidin-4-yl)imidazo[1,2-a]pyridine] |  | 2300 nM
6 | [2H]C1([2H])Oc2ccc(S(=O)(=O)N3CCC(c4cn5nc(C)nc5cc4C)CC3)cc2C1([2H])[2H] [Compound 91, 6-(1-((2,3-dihydrobenzofuran-5-yl-2,2,3,3-d4)sulfonyl)piperidin-4-yl)-2,7-dimethyl-[1,2,4]triazolo[1,5-a]pyridine] |  | > 10000 nM
7 | Cc1cc2nccn2nc1C1CCN(S(=O)(=O)c2ccc3ncsc3c2)CC1 [Compound 38, 6-((4-(7-methylimidazo[1,2-b]pyridazin-6-yl)piperidin-1-yl)sulfonyl)benzo[d]thiazole] |  | 4200 nM
8 | Cn1cnc2cc(C3CCN(S(=O)(=O)c4ccc5ncsc5c4)CC3)ccc21 [Compound 8, 6-((4-(1-methyl-1-benzo[d]imidazol-5-yl)piperidin-1-yl)sulfonyl)benzo[d]thiazole] |  | > 10000 nM
9 | Cc1cc2ncnn2cc1C1CCN(S(=O)(=O)c2cccc3nonc23)CC1 [Compound 168, 4-((4-(7-methyl-[1,2,4]triazolo[1,5-a]pyridin-6-yl)piperidin-1-yl)sulfonyl)benzo[c][1,2,5]oxadiazole] |  | 821 nM
10 | Cc1ncc(S(=O)(=O)N2CC=C(c3cc4ncnn4cc3Cl)CC2)n1C [Compound 223, 6-chloro-7-(1-((1,2-dimethyl-1H-imidazol-5-yl)sulfonyl)-1,2,3,6-tetrahydropyridin-4-yl)-[1,2,4]triazolo[1,5-a]pyridine] |  | 660 nM
11 | Cc1nc2[nH]cnc2cc1C1CCN(S(=O)(=O)c2cnn3c2CCC3)CC1 [Compound 289, 6-(1-((5,6-dihydro-4H-pyrrolo[1,2-b]pyrazol-3-yl)sulfonyl)piperidin-4-yl)-5-methyl-3H-imidazo[4,5-b]pyridine] |  | > 10000 nM
12 | Cc1cc2nccn2nc1C1CCN(S(=O)(=O)c2cn(C)nc2C)CC1 [Compound 55, 6-(1-((1,3-dimethyl-1H-pyrazol-4-yl)sulfonyl)piperidin-4-yl)-7-methylimidazo[1,2-b]pyridazine] |  | 5600 nM
13 | COc1cc2ncnn2cc1C1CCN(S(=O)(=O)c2ccc3c(c2)CCO3)CC1 [Compound 80, 6-(1-((2,3-dihydrobenzofuran-5-yl)sulfonyl)piperidin-4-yl)-7-methoxy-[1,2,4]triazolo[1,5-a]pyridine] |  | > 10000 nM
14 | O=S(=O)(c1ccc2ncsc2c1)N1CCC(c2ccc3ncnn3c2)CC1 [Compound 62, 6-((4-([1,2,4]triazolo[1,5-a]pyridin-6-yl)piperidin-1-yl)sulfonyl)benzo[d]thiazole] |  | > 10000 nM
15 | Cc1cc2ncnn2nc1C1CCN(S(=O)(=O)c2cn(C)nc2C)CC1 [Compound 182, 6-(1-((1,3-dimethyl-1H-pyrazol-4-yl)sulfonyl)piperidin-4-yl)-7-methyl-[1,2,4]triazolo[1,5-b]pyridazine] |  | > 10000 nM
16 | Cc1cc2ncnn2cc1C1CCN(S(=O)(=O)c2cn(C)cn2)CC1 [Compound 128, 7-methyl-6-(1-((1-methyl-1H-imidazol-4-yl)sulfonyl)piperidin-4-yl)-[1,2,4]triazolo[1,5-a]pyridine] |  | 1300 nM
17 | Cc1c(S(=O)(=O)N2CCC(c3ccc4ncnn4c3)CC2)cnn1C [Compound 288, 6(1-((1,5-dimethyl-1H-pyrazol-4-yl)sulfonyl)piperidin-4-yl)-[1,2,4]triazolo[1,5-a]pyridine] |  | 358 nM

Continued, values first:

Row | IC50 (vs EC80 acetylcholine) | IC50 [1] | Compound
18 | 1630 nM |  | Cc1cc2ncnn2cc1C1=C(C#N)CN(S(=O)(=O)c2cnn(C)c2C)CC1 [Compound 468, 1-((1,5-dimethyl-1H-pyrazol-4-yl)sulfonyl)-4-(7-methyl-[1,2,4]triazolo[1,5-a]pyridin-6-yl)-1,2,5,6-tetrahydropyridine-3-carbonitrile]
19 | 58 nM |  | Cn1ncc(S(=O)(=O)N2CCC(c3cn4ncnc4cc3Cl)CC2)c1CC#N [Compound 406, 2-(4-((4-(7-chloro-[1,2,4]triazoto[1,5-a]pyridin-6-yl)piperidin-1-yl)sulfonyl)-1-methyl-1H-pyrazol-5-yl)acetonitrile]
20 | 288 nM |  | CO[C@@H]1CN(S(=O)(=O)c2cnn(C)c2C)CC[C@H]1c1cn2ncnc2cc1C (racemic) [Compound 411, (rac)-6-(trans-1-((1,5-dimethyl-1H-pyrazol-4-yl)sulfonyl)-3-methoxypiperidin-4-yl)-7-methyl-[1,2,4]triazolo[1,5-a]pyridine]
21 | 1950 nM |  | Cc1cc2ncccc2cc1C1CCN(S(=O)(=O)c2c(C)nn(C)c2C(F)(F)F)CC1 [Compound 445, 6(1-((1,3-dimethyl-5-(trifluoromethyl)-1H-pyrazol-4-yl)sulfonyl)piperidin-4-yl)-7-methylquinoline]
22 |  | 774 nM | O=S(=O)(c1cnc2ccccn12)N1CCC(c2cn3ncnc3cc2F)CC1 [Compound 327, 7-fluoro-6-(1-(imidazo[1,2-a]pyridin-3-ylsulfonyl)piperidin-4-yl)-[1,2,4]triazolo[1,5-a]pyridine]
23 |  | 2060 nM | Cc1cc2c(cc1C1CCN(S(=O)(=O)c3ccc4c(c3)CCO4)CC1)OCO2 [Compound 375, 1-((2,3-dihydrobenzofuran-5-yl)sulfonyl)-4-(6-methylbenzo[d][1,3]dioxol-5-yl)piperidine]
24 | 148 nM |  | CCc1cc2ncnn2cc1C1CCN(S(=O)(=O)c2cnn(C)c2C#N)CC1 [Compound 407, 4-((4-(7-ethyl-[1,2,4]triazolo[1,5-a]pyridin-6-yl)piperidin-1-yl)sulfonyl)-1-methyl-1H-pyrazole-5-carbonitrile]
25 |  | 15 nM | Cc1nn(C)c(Cl)c1S(=O)(=O)N1CCC(c2cn3ncnc3c(F)c2C)CC1 [Compound 318, 6-(1-((5-chloro-1,3-dimethyl-1H-pyrazol-4-yl)sulfonyl)piperidin-4-yl)-8-fluoro-7-methyl-[1,2,4]triazolo[1,5-a]pyridine]
26 | 31 nM |  | Cc1nnc(S(=O)(=O)N2CCC(c3cn4ncnc4cc3C)CC2)s1 [Compound 539, 2-methyl-5-((4-(7-methyl-[1,2,4]triazolo[1,5-a]pyridin-6-yl)piperidin-1-yl)sulfonyl)-1,3,4-thiadiazole]
27 |  | 37 nM | CCc1cc2ncnn2cc1C1CCN(S(=O)(=O)c2c(Cl)nn(C)c2C)CC1 [Compound 337, 6-(1-((3-chloro-1,5-dimethyl-1H-pyrazol-4-yl)sulfonyl)piperidin-4-yl)-7-ethyl-[1,2,4]triazolo[1,5-a]pyridine]
28 | 4960 nM |  | [2H]C([2H])([2H])OCc1c(S(=O)(=O)N2CCC(c3cn4ncnc4cc3C)CC2)cnn1C [Compound 440, 6-(1-((5-((methoxy-d3)methyl)-1-methyl-1H-pyrazol-4-yl)sulfonyl)piperidin-4-yl)-7-methyl-[1,2,4]triazolo[1,5-a]pyridine]
29 | 777 nM |  | Cn1ncc(S(=O)(=O)N2CCC(c3ccc4ncnn4c3)CC2)c1C#N [Compound 432, 4-((4-([1,2,4]triazolo[1,5-a]pyridin-6-yl)piperidin-1-yl)sulfonyl)-1-methyl-1H-pyrazole-5-carbonitrile]
30 | 946 nM |  | O=S(=O)(c1cnn2c1OCCC2)N1CCC(F)(c2cn3ncnc3cc2F)CC1 [Compound 506, 3-((4-fluoro-4-(7-fluoro-[1,2,4]triazolo[1,5-a]pyridin-6-yl)piperidin-1-yl)sulfonyl)-6,7-dihydro-5H-pyrazolo[5,1-b][1,3]oxazine]
31 |  | 134 nM | Cc1c(S(=O)(=O)N2CCC(c3cn4ncnc4cc3C3CC3)CC2)cnn1C [Compound 345, 7-cyclopropyl-6-(1-((1,5-dimethyl-1H-pyrazol-4-yl)sulfonyl)piperidin-4-yl)-[1,2,4]triazolo[1,5-a]pyridine]
32 | 1970 nM |  | Cc1cc2ncnn2cc1C1CCN(S(=O)(=O)c2cnn(C)c2N2CCOCC2)CC1 [Compound 622, 4-(1-Methyl-4-((4-(7-methyl-[1,2,4]triazolo[1,5-a]pyridin-6-yl)piperidin-1-yl)sulfonyl)-1H-pyrazol-5-yl)morpholine]
33 | 68 nM |  | O=S(=O)(c1cnc2sccn12)N1CCC(c2cn3ncnc3cc2C(F)(F)F)CC1 [Compound 518, 5-((4-(7-(trifluoromethyl)-[1,2,4]triazolo[1,5-a]pyridin-6-yl)piperidin-1-yl)sulfonyl)imidazo[2,1-b]thiazole]
